This note sets out measurements from patent US9926275B2 (priority 2013, dated 2018).

Structures are written as SMILES. Read-outs that look alike come from different tables or passages of the source.

Data set [1] concerns the target T1, CB1 receptor (Homo sapiens, UniProt P21554). Nature of the data set: β-arrestin recruitment in CNR1 PathHunter cell line, allosteric modulation of CP55,940 response. It counts as cell-based. The conditions noted are these: Table 1, CP55,940 as agonist.
In data set [2] the test system is rats. The class given is in vivo. On the procedure:
(§1) GAT358 was assessed in two different behavioral tests, the Taste Reactivity (TR) Test and the Light Dark Emergence (LDE) Test. The TR Test is used to assess the possibility of a drug inducing nausea in rats as measured by conditioned gaping to infusion of a 0.01% saccharin solution previously paired with drug administration.
GAT358 was dissolved in a mixture of 4% DMSO, 1% Tween80, 1% Cremophor and 94% Saline (for doses of 5, 10 and 20 mg/kg) and injected at a volume of 3 ml/kg. Assessed was the vehicle (“Veh”), 10 and 20 mg/kg doses of GAT358 in the conditioned gaping model of nausea where rats are infused for 2 min with novel 0.01% saccharin followed immediately by an injection of the appropriate drug dose [Vehicle (n=6), GAT358-10 (n=8) and GAT358-20 (n=8)]. Seventy two hours following conditioning the rats were infused for 2 min with 0.01% saccharin during the drug free TR Test while their orofacial responses were videotaped for subsequent scoring. Further assessed was the Veh, 5 and 10 mg/kg of GAT358 in the LDE test [Veh (n=6), GAT358-5 (n=8) and GAT358-10 (n=8)]. Group assignment was counterbalanced based upon previous drug experience. The rats were administered the appropriate drug dose 45 min prior to being placed in the enclosed dark chamber that allowed access to an open field area where the lighting was 100 lux. The activity of the rat while in the LDE test for 5 min was tracked by Ethovision (Noldus Information Technology) and subsequently the duration of time spent in the open field and activity (distance travelled (cm)/amount of time(sec)) was analyzed.
Results (all analyses were conducted using a one way ANOVA): […]

In data set [3] the test system is rats. Nature of the data set: Light Dark Emergence (LDE) Test of anxiety. It counts as in vivo. The conditions noted are these: 5 or 10 mg/kg, p>0.05. On the procedure: as §1
GAT358 was dissolved in a mixture of 4% DMSO, 1% Tween80, 1% Cremophor and 94% Saline (for doses of 5, 10 and 20 mg/kg) and injected at a volume of 3 ml/kg. Assessed was the vehicle (“Veh”), 10 and 20 mg/kg doses of GAT358 in the conditioned gaping model of nausea where rats are infused for 2 min with novel 0.01% saccharin followed immediately by an injection of the appropriate drug dose [Vehicle (n=6), GAT358-10 (n=8) and GAT358-20 (n=8)]. Seventy two hours following conditioning the rats were infused for 2 min with 0.01% saccharin during the drug free TR Test while their orofacial responses were videotaped for subsequent scoring. Further assessed was the Veh, 5 and 10 mg/kg of GAT358 in the LDE test [Veh (n=6), GAT358-5 (n=8) and GAT358-10 (n=8)]. […] The activity of the rat while in the LDE test for 5 min was tracked by Ethovision (Noldus Information Technology) and subsequently the duration of time spent in the open field and activity (distance travelled (cm)/amount of time(sec)) was analyzed. […]

Data set [4] has as its target T1, CB1 receptor. As to the kind of experiment: DiscoveRx HitHunter cAMP XS+ assay in cAMP Hunter cell line, allosteric modulation of CP55,940 response. The class given is cell-based. The conditions noted are these: Table 1, preincubation with compound, then CP55,940 challenge, 20 μM forskolin.

T1 sequence (P21554 whole entry): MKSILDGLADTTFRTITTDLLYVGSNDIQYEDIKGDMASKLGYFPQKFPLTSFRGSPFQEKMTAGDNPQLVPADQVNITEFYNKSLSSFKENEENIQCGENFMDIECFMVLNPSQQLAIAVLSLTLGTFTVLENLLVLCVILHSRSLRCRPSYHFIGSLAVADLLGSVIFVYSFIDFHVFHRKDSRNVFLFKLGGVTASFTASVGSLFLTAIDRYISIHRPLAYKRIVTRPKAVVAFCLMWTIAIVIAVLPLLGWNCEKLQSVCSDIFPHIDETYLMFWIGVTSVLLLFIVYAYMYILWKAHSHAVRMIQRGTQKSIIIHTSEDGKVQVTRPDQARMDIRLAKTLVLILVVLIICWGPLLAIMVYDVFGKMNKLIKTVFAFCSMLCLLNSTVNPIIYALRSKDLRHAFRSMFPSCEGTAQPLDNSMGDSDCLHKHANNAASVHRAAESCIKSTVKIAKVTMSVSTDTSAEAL

As for `O=c1c(Nc2ccc(Cl)cc2)c(Nc2cccc(-c3cccc(N4CCCC4)n3)c2)c1=O` [Compound 38, 3-((4-Chlorophenyl)amino)-4-((3-(6-(pyrrolidin-1-yl)pyridin-2-yl)phenyl)amino)cyclobut-3-ene-1,2-dione], the β-arrestin % inhibition at CB1 receptor [1] was 107%. Further, the EC50 (commonly the concentration at which the effect is half-maximal) was 111 nM on CB1 receptor [1] (read-out: β-arrestin EC50) and greater than 10000 nM on CB1 receptor [4] (read-out: cAMP EC50). For the same compound, the “total activity of rats during the drug-free test with saccharin vs vehicle” value in the data set with rats [2] (10 mg/kg, Bonferroni p=0.006) is “significantly lower than the rats in the vehicle group”; in the data set with rats [2] (20 mg/kg, Bonferroni p=0.012), “significantly lower than the rats in the vehicle group”. For the same compound, the “conditioned gaping responses vs vehicle” value in the data set with rats [2] (10 and 20 mg/kg, drug-free TR test 72 h after conditioning, 2 min saccharin infusion, p>0.05) is reported as “did not result in the expression of conditioned gaping or total aversive responses that differed significantly from the vehicle group”. The “total aversive responses (gaping, chin rubs and paw treads) vs vehicle” value in the data set with rats [2] (10 and 20 mg/kg, drug-free TR test 72 h after conditioning, p>0.05) is on record as “did not result in the expression of conditioned gaping or total aversive responses that differed significantly from the vehicle group”. Also, the “conditional ingestive responding to saccharin infusion” value in the data set with rats [2] (10 and 20 mg/kg, drug-free TR test, p>0.05) is recorded as “did not alter conditional ingestive responding to saccharin infusion”. Moreover, in the data set on rats [3] (45 min before 5 min LDE test), the “time spent in the open field” value is reported as “did not significantly alter the time spent in the open field”. The “activity of rats during the 5 min in the LDE test” value with rats [3] (45 min before test) is listed as “did not significantly alter”. Also, the cAMP % inhibition on CB1 receptor [4] amounted to 16%.
